Results as given in US12503436B2, “Compounds and compositions for treating conditions associated with STING activity” (NOVARTIS PHARMA AG, priority 2021, dated 2025).

Molecular target: STING (Homo sapiens, UniProt Q86WV6, G230A/H232R/R293Q/R71H)
Experiment: STING reporter assay in THP1-Dual KO-IFNAR2 cells (2′3′cGAMP stimulation, luciferase reporter)
Format: cell-based
Conditions: 15 μM 2′3′cGAMP stimulation, 24 h, read-out: Pharmaron, THP1_IFNAR2 STING 24 h Luci Normalized: GeoMean EC50
Summary of the method: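 THP1-Dual KO-IFNAR2 cells (2×10E6 cells/mL) with compounds at 0.0017-100 μM final, stimulated with 15 μM final 2′3′cGAMP delivered by Lipofectamine 2000; 24 h at 37 °C. Luciferase in supernatant read with QUANTI-Luc Plus; EC50 derived from luminescence.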

Chain of STING (Q86WV6 whole entry R71H/G230A/H232R/R293Q): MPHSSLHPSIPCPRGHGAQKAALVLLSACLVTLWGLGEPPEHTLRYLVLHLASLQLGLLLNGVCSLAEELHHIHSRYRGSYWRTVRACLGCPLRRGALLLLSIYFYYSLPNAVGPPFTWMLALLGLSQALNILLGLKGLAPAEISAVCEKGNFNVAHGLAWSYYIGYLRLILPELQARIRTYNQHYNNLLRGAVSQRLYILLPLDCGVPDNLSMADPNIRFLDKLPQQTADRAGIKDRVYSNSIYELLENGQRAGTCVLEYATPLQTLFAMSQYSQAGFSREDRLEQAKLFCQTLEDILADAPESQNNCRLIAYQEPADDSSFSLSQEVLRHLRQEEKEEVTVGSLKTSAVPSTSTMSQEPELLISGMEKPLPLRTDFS

## O=C(Nc1c[nH]c2ccc(O[C@H]3C[C@@H](c4ccc(C(F)(F)F)cc4)C3)cc12)C1CC(Cl)C1 (stereo partly drawn) [Compound 336, 3-chloro-N-(5-(cis-3-(4-(trifluoromethyl)phenyl)cyclobutoxy)-1H-indol-3-yl)cyclobutane-1-carboxamide]
  EC50: 200 to 1000 nM

## O=C(Nc1c[nH]c2ccc(O[C@H]3C[C@@H](c4ccc(C(F)(F)F)cc4)C3)cc12)[C@H]1C[C@@H](O)C1 [Compound 337, cis-3-hydroxy-N-(5-(cis-3-(4-(trifluoromethyl)phenyl)cyclobutoxy)-1H-indol-3-yl)cyclobutane-1-carboxamide]
  EC50: 200 to 1000 nM

## O=C(Nc1c[nH]c2ccc(O[C@H]3C[C@@H](c4ccc(C(F)(F)F)cc4)C3)cc12)C1CC(O)C1 (stereo partly drawn) [Compound 338, 3-hydroxy-N-(5-(cis-3-(4-(trifluoromethyl)phenyl)cyclobutoxy)-1H-indol-3-yl)cyclobutane-1-carboxamide]
  EC50: 200 to 1000 nM

## N#C[C@H]1C[C@@H]1C(=O)Nc1c[nH]c2ccc(OCC[C@@H]3C[C@@H]4CN(CC(F)(F)F)C[C@@H]4C3)cc12 [Compound 340, (1S,2S)-2-cyano-N-(5-(2-((3aR,5r,6aS)-2-(2,2,2-trifluoroethyl)octahydrocyclopenta[c]pyrrol-5-yl)ethoxy)-1H-indol-3-yl)cyclopropane-1-carboxamide]
  EC50: 1000 to 5000 nM

## C[C@H]1C[C@H](C(=O)Nc2c[nH]c3ccc(OCC[C@@H]4C[C@@H]5CN(CC(F)(F)F)C[C@@H]5C4)cc23)C1 [Compound 341, (1r,3R)-3-methyl-N-(5-(2-((3aR,5r,6aS)-2-(2,2,2-trifluoroethyl)octahydrocyclopenta[c]pyrrol-5-yl)ethoxy)-1H-indol-3-yl)cyclobutane-1-carboxamide]
  EC50: 200 to 1000 nM

## COC1CC(C(=O)Nc2c[nH]c3ccc(OCC[C@@H]4C[C@@H]5CN(CC(F)(F)F)C[C@@H]5C4)cc23)C1 (stereo partly drawn) [Compound 345, 3-methoxy-N-(5-(2-((3aR,5r,6aS)-2-(2,2,2-trifluoroethyl)octahydrocyclopenta[c]pyrrol-5-yl)ethoxy)-1H-indol-3-yl)cyclobutane-1-carboxamide]
  EC50: 200 to 1000 nM

## CC1(C)CC(C(=O)Nc2c[nH]c3ccc(OCC[C@@H]4C[C@@H]5CN(CC(F)(F)F)C[C@@H]5C4)cc23)C1 [Compound 346, 3,3-dimethyl-N-(5-(2-((3aR,5r,6aS)-2-(2,2,2-trifluoroethyl)octahydrocyclopenta[c]pyrrol-5-yl)ethoxy)-1H-indol-3-yl)cyclobutane-1-carboxamide]
  EC50: 200 to 1000 nM

## CC1(C)CC(C(=O)Nc2c[nH]c3ccc(CCOc4ccc(C(F)(F)F)cc4)cc23)C1 [Compound 348, 3,3-dimethyl-N-(5-(2-(4-(trifluoromethyl)phenoxy)ethyl)-1H-indol-3-yl)cyclobutane-1-carboxamide]
  EC50: 200 to 1000 nM

## CC(=O)Nc1c[nH]c2ccc(OCCc3cnn4c3CCCC4)cc12 [Compound 349, N-(5-(2-(4,5,6,7-tetrahydropyrazolo[1,5-a]pyridin-3-yl)ethoxy)-1H-indol-3-yl)acetamide]
  EC50: 5000 to 100000 nM

## CC(=O)Nc1c[nH]c2ccc(OCCc3ccc(C(F)(F)F)cc3)c(Br)c12 [Compound 350, N-(4-bromo-5-(4-(trifluoromethyl)phenethoxy)-1H-indol-3-yl)acetamide]
  EC50: 1000 to 5000 nM

## N#CC1CCC1C(=O)Nc1c[nH]c2ccc(OCc3ccc(C(F)(F)F)cc3)cc12 (centres unmarked) [Compound 351, 2-cyano-N-(5-((4-(trifluoromethyl)benzyl)oxy)-1H-indol-3-yl)cyclobutane-1-carboxamide]
  EC50: 200 to 1000 nM

## COC1CC(C(=O)Nc2c[nH]c3ccc(OCc4ccc(C(F)(F)F)cc4)cc23)C1 (centres unmarked) [Compound 352, 3-methoxy-N-(5-((4-(trifluoromethyl)benzyl)oxy)-1H-indol-3-yl)cyclobutane-1-carboxamide]
  EC50: 40 to 200 nM

## O=C(Nc1c[nH]c2ccc(O[C@H]3C[C@@H](c4ccc(C(F)(F)F)cc4)C3)cc12)C1(C(F)(F)F)CC1 [Compound 353, 1-(trifluoromethyl)-N-(5-(cis-3-(4-(trifluoromethyl)phenyl)cyclobutoxy)-1H-indol-3-yl)cyclopropane-1-carboxamide]
  EC50: 200 to 1000 nM

## CC(C)(C)C(=O)Nc1c[nH]c2ccc(O[C@H]3C[C@@H](c4ccc(C(F)(F)F)cc4)C3)cc12 [Compound 354, N-(5-(cis-3-(4-(trifluoromethyl)phenyl)cyclobutoxy)-1H-indol-3-yl)pivalamide]
  EC50: 200 to 1000 nM

## N#CC1CCC1C(=O)Nc1c[nH]c2ccc(O[C@H]3C[C@@H](c4ccc(C(F)(F)F)cc4)C3)cc12 (stereo partly drawn) [Compound 355, 2-cyano-N-(5-(cis-3-(4-(trifluoromethyl)phenyl)cyclobutoxy)-1H-indol-3-yl)cyclobutane-1-carboxamide]
  EC50: 200 to 1000 nM

## CC1(F)CC(C(=O)Nc2c[nH]c3ccc(O[C@H]4C[C@@H](c5ccc(C(F)(F)F)cc5)C4)cc23)C1 (stereo partly drawn) [Compound 356, 3-fluoro-3-methyl-N-(5-(cis-3-(4-(trifluoromethyl)phenyl)cyclobutoxy)-1H-indol-3-yl)cyclobutane-1-carboxamide]
  EC50: 200 to 1000 nM

## CC1(C(=O)Nc2c[nH]c3ccc(O[C@H]4C[C@@H](c5ccc(C(F)(F)F)cc5)C4)cc23)CCOC1 (stereo partly drawn) [Compound 357, 3-methyl-N-(5-(cis-3-(4-(trifluoromethyl)phenyl)cyclobutoxy)-1H-indol-3-yl)tetrahydrofuran-3-carboxamide]
  EC50: 200 to 1000 nM

## CC1(C(=O)Nc2c[nH]c3ccc(O[C@H]4C[C@@H](c5ccc(C(F)(F)F)cc5)C4)cc23)CCCO1 (stereo partly drawn) [Compound 358, 2-methyl-N-(5-(cis-3-(4-(trifluoromethyl)phenyl)cyclobutoxy)-1H-indol-3-yl)tetrahydrofuran-2-carboxamide]
  EC50: 1000 to 5000 nM

## CC1(C)CC1C(=O)Nc1c[nH]c2ccc(O[C@H]3C[C@@H](c4ccc(C(F)(F)F)cc4)C3)cc12 (stereo partly drawn) [Compound 359, 2,2-dimethyl-N-(5-(cis-3-(4-(trifluoromethyl)phenyl)cyclobutoxy)-1H-indol-3-yl)cyclopropane-1-carboxamide]
  EC50: 40 to 200 nM

## CC1(C(=O)Nc2c[nH]c3ccc(O[C@H]4C[C@@H](c5ccc(C(F)(F)F)cc5)C4)cc23)CCC1 [Compound 360, 1-methyl-N-(5-(cis-3-(4-(trifluoromethyl)phenyl)cyclobutoxy)-1H-indol-3-yl)cyclobutane-1-carboxamide]
  EC50: 200 to 1000 nM

## CC1(C)CC(C(=O)Nc2c[nH]c3ccc(O[C@H]4C[C@@H](c5ccc(C(F)(F)F)cc5)C4)cc23)C1 [Compound 361, 3,3-dimethyl-N-(5-(cis-3-(4-(trifluoromethyl)phenyl)cyclobutoxy)-1H-indol-3-yl)cyclobutane-1-carboxamide]
  EC50: 40 to 200 nM

## N#CC1(C(=O)Nc2c[nH]c3ccc(O[C@H]4C[C@@H](c5ccc(C(F)(F)F)cc5)C4)cc23)CC1 [Compound 362, 1-cyano-N-(5-(cis-3-(4-(trifluoromethyl)phenyl)cyclobutoxy)-1H-indol-3-yl)cyclopropane-1-carboxamide]
  EC50: 200 to 1000 nM

## CC1(C(=O)Nc2c[nH]c3ccc(O[C@H]4C[C@@H](c5ccc(C(F)(F)F)cc5)C4)cc23)CCOCC1 [Compound 363, 4-methyl-N-(5-(cis-3-(4-(trifluoromethyl)phenyl)cyclobutoxy)-1H-indol-3-yl)tetrahydro-2H-pyran-4-carboxamide]
  EC50: 200 to 1000 nM
